Data published in ChEMBL document CHEMBL1147331, “Cytotoxic and antimalarial bisbenzylisoquinoline alkaloids from Stephania erecta” (J Nat Prod, 1993).
In brackets after ≈: the same amount, converted by molar mass.

Legend:
[1] = Selectivity index, ratio of ED50 for human LUC1 cells to ED50 for chloroquine-sensitive Plasmodium falciparum D6; type: toxicity, cell-based; settings: read-out: Ratio ED50
[2] = Selectivity index, ratio of ED50 for human MEL2 cells to ED50 for chloroquine-resistant Plasmodium falciparum W2; type: toxicity, cell-based; settings: read-out: Ratio ED50
[3] = Cytotoxicity against human SK-MEL-2 cells after 3 days by sulforhodamine B assay; type: cell-based; settings: read-out: ED50
[4] = Cytotoxicity against human LNCAP cells after 3 days by sulforhodamine B assay; type: cell-based; settings: read-out: ED50
[5] = Cytotoxicity against human ZR-75-1 cells after 3 days by sulforhodamine B assay; type: cell-based; settings: read-out: ED50
[6] = Selectivity index, ratio of ED50 for human KB cells to ED50 for chloroquine-resistant Plasmodium falciparum W2; type: toxicity, cell-based; settings: read-out: Ratio ED50
[7] = Selectivity index, ratio of ED50 for human HT1080 cells to ED50 for chloroquine-resistant Plasmodium falciparum W2; type: toxicity, cell-based, HT-1080; settings: read-out: Ratio ED50
[8] = Selectivity index, ratio of ED50 for human KB-V1 cells to ED50 for chloroquine-resistant Plasmodium falciparum W2; type: toxicity, cell-based; settings: read-out: Ratio ED50
[9] = Cytotoxicity against human LUC1 cells after 3 days by sulforhodamine B assay; type: cell-based; settings: read-out: ED50
[10] = Selectivity index, ratio of ED50 for human HT1080 cells to ED50 for chloroquine-sensitive Plasmodium falciparum D6; type: toxicity, cell-based, HT-1080; settings: read-out: Ratio ED50
[11] = Selectivity index, ratio of ED50 for human ZR-75-1 cells to ED50 for chloroquine-sensitive Plasmodium falciparum D6; type: toxicity, cell-based; settings: read-out: Ratio ED50
[12] = Cytotoxicity against human BCA1 cells after 3 days by sulforhodamine B assay; type: cell-based; settings: read-out: ED50
[13] = Selectivity index, ratio of ED50 for human KB cells to ED50 for chloroquine-sensitive Plasmodium falciparum D6; type: toxicity, cell-based; settings: read-out: Ratio ED50
in vitro [14] = settings: mouse, P388 cells
Description: Selectivity index, ratio of ED50 for mice (Mus musculus) P388 cells to ED50 for chloroquine-sensitive Plasmodium falciparum D6

in vitro [15] = settings: human, A431 cells
Description: Selectivity index, ratio of ED50 for human A431 cells to ED50 for chloroquine-sensitive Plasmodium falciparum D6

[16] = Selectivity index, ratio of ED50 for human COL1 cells to ED50 for chloroquine-sensitive Plasmodium falciparum D6; type: toxicity, cell-based; settings: read-out: Ratio ED50
[17] = Selectivity index, ratio of ED50 for human LNCaP cells to ED50 for chloroquine-sensitive Plasmodium falciparum D6; type: toxicity, cell-based; settings: read-out: Ratio ED50
[18] = Selectivity index, ratio of ED50 for human KB-V1 cells to ED50 for chloroquine-sensitive Plasmodium falciparum D6; type: toxicity, cell-based; settings: read-out: Ratio ED50
[19] = Cytotoxicity against human Col1 cells after 3 days by sulforhodamine B assay; type: cell-based; settings: read-out: ED50
Plasmodium falciparum [20] = assay: Antimalarial activity after 24 hrs against chloroquine-sensitive Plasmodium falciparum D6 infected type A+ human erythrocytes by [3H]hypoxanthine uptake; type: functional; settings: read-out: ED50 (the source's name)
[21] = Cytotoxicity against human HT1080 cells after 3 days by sulforhodamine B assay; type: cell-based, HT-1080; settings: read-out: ED50
[22] = Selectivity index, ratio of ED50 for human LUC1 cells to ED50 for chloroquine-resistant Plasmodium falciparum W2; type: toxicity, cell-based; settings: read-out: Ratio ED50
in vitro [23] = settings: mouse, P388 cells; remark: listed apart in the source
Description: Selectivity index, ratio of ED50 for mice (Mus musculus) P388 cells to ED50 for chloroquine-resistant Plasmodium falciparum W2

[24] = Selectivity index, ratio of ED50 for human LNCaP cells to ED50 for chloroquine-resistant Plasmodium falciparum W2; type: toxicity, cell-based; settings: read-out: Ratio ED50
[25] = Cytotoxicity against human KBV1 cells after 3 days by sulforhodamine B assay; type: cell-based, KB-V1; settings: read-out: ED50
[26] = Selectivity index, ratio of ED50 for human BCA1 cells to ED50 for chloroquine-sensitive Plasmodium falciparum D6; type: toxicity, cell-based; settings: read-out: Ratio ED50
[27] = Cytotoxicity against human KB cells after 3 days by sulforhodamine B assay; type: cell-based; settings: read-out: ED50
[28] = Cytotoxicity against mouse P388 cells after 2 days by sulforhodamine B assay; type: cell-based; settings: read-out: ED50
in vitro [29] = settings: human, A431 cells; remark: listed apart in the source
Description: Selectivity index, ratio of ED50 for human A431 cells to ED50 for chloroquine-resistant Plasmodium falciparum W2

[30] = Selectivity index, ratio of ED50 for human COL1 cells to ED50 for chloroquine-resistant Plasmodium falciparum W2; type: toxicity, cell-based; settings: read-out: Ratio ED50
[31] = Cytotoxicity against human A431 cells after 3 days by sulforhodamine B assay; type: cell-based, A-431; settings: read-out: ED50
[32] = Selectivity index, ratio of ED50 for human ZR-75-1 cells to ED50 for chloroquine-resistant Plasmodium falciparum W2; type: toxicity, cell-based; settings: read-out: Ratio ED50
[33] = Selectivity index, ratio of ED50 for human MEL2 cells to ED50 for chloroquine-sensitive Plasmodium falciparum D6; type: toxicity, cell-based; settings: read-out: Ratio ED50
Plasmodium falciparum [34] = assay: Antimalarial activity after 24 hrs against chloroquine-resistant Plasmodium falciparum W2 infected type A+ human erythrocytes by [3H]hypoxanthine uptake; type: functional; settings: read-out: ED50 (the source's name)
[35] = Selectivity index, ratio of ED50 for human BCA1 cells to ED50 for chloroquine-resistant Plasmodium falciparum W2; type: toxicity, cell-based; settings: read-out: Ratio ED50

| SMILES | selectivity ratio [2] | CC50 at 72 h [3] [µg/mL] | CC50 at 72 h [4] [µg/mL] | CC50 at 72 h [5] [µg/mL] | selectivity ratio [7] | selectivity ratio [8] | CC50 at 72 h [9] [µg/mL] | selectivity ratio [10] | selectivity ratio [11] | CC50 at 72 h [12] [µg/mL] | selectivity ratio [13] | selectivity ratio (in vitro [14]) | CC50 at 72 h [19] [µg/mL] | EC50 (Plasmodium falciparum [20]) [µg/mL] | CC50 at 72 h [21] [µg/mL] | CC50 at 72 h [25] [µg/mL] | CC50 at 72 h [27] [µg/mL] | CC50 at 48 h [28] [µg/mL] | CC50 at 72 h [31] [µg/mL] | EC50 (Plasmodium falciparum [34]) [µg/mL] | also measured |
| --- | --- | --- | --- | --- | --- | --- | --- | --- | --- | --- | --- | --- | --- | --- | --- | --- | --- | --- | --- | --- | --- |
| COc1ccc2cc1Oc1ccc(cc1)C[C@H]1c3c(cc(OC)c(OC)c3Oc3cc4c(cc3OC)CCN[C@@H]4C2)CCN1C | 155 | 14.5 (≈ 23.8 µM) | 3.7 (≈ 6.08 µM) | 1.9 (≈ 3.12 µM) | 79 | 21 | 8.8 (≈ 14.5 µM) | 161 | 41 | 3.2 (≈ 5.26 µM) | 131 | 76 | 5.5 (≈ 9.04 µM) | 0.0459 (≈ 0.0754 µM) | 7.4 (≈ 12.2 µM) | 2 (≈ 3.29 µM) | 6 (≈ 9.86 µM) | 3.5 (≈ 5.75 µM) | 6.1 (≈ 10 µM) | 0.0937 (≈ 0.154 µM) | selectivity ratio [1]: 192; selectivity ratio [6]: 64; selectivity ratio (in vitro [15]): 133; selectivity ratio [16]: 120; selectivity ratio [17]: 81; selectivity ratio [18]: 44; selectivity ratio [22]: 94; selectivity ratio (in vitro [23]): 37; selectivity ratio [24]: 40; selectivity ratio [26]: 70; selectivity ratio (in vitro [29]): 65; selectivity ratio [30]: 59; selectivity ratio [32]: 20; selectivity ratio [33]: 316; selectivity ratio [35]: 34 |
| COc1ccc2cc1Oc1ccc(cc1)C[C@H]1c3c(cc(OC)c(O)c3Oc3cc4c(cc3OC)CCN[C@@H]4C2)CCN1C | 60 | 13.4 (≈ 22.5 µM) | 5.8 (≈ 9.75 µM) | 1.8 (≈ 3.03 µM) | 31 | 10 | 9 (≈ 15.1 µM) | 110 | 29 | 4.6 (≈ 7.73 µM) | 92 | 32 | 10.3 (≈ 17.3 µM) | 0.063 (≈ 0.106 µM) | 6.9 (≈ 11.6 µM) | 2.2 (≈ 3.7 µM) | 5.8 (≈ 9.75 µM) | 2 (≈ 3.36 µM) | 8.3 (≈ 14 µM) | 0.223 (≈ 0.375 µM) | selectivity ratio [1]: 143; selectivity ratio [6]: 26; selectivity ratio (in vitro [15]): 132; selectivity ratio [16]: 164; selectivity ratio [17]: 92; selectivity ratio [18]: 35; selectivity ratio [22]: 40; selectivity ratio (in vitro [23]): 9; selectivity ratio [24]: 26; selectivity ratio [26]: 73; selectivity ratio (in vitro [29]): 37; selectivity ratio [30]: 46; selectivity ratio [32]: 8; selectivity ratio [33]: 213; selectivity ratio [35]: 21 |
| CCN(CC)CCCC(C)Nc1ccnc2cc(Cl)ccc12 (stereo not given) [CHLOROQUINE] | – | > 20 | 14.3 (≈ 44.7 µM) | 15.8 (≈ 49.4 µM) | – | – | > 20 | – | – | > 20 | – | – | 10.1 (≈ 31.6 µM) | 0.0025 (≈ 0.00782 µM) | 6.5 (≈ 20.3 µM) | 7.8 (≈ 24.4 µM) | 17.4 (≈ 54.4 µM) | > 5 | > 20 | 0.0317 (≈ 0.0991 µM) | – |
| OC(c1cc(C(F)(F)F)nc2c(C(F)(F)F)cccc12)C1CCCCN1 (stereo not given) [MEFLOQUINE] | 7420 | 8.9 (≈ 23.5 µM) | 2.3 (≈ 6.08 µM) | 1.2 (≈ 3.17 µM) | 1920 | 917 | 7.7 (≈ 20.4 µM) | 256 | 300 | 5.3 (≈ 14 µM) | 389 | 22 | 1 (≈ 2.64 µM) | 0.009 (≈ 0.0238 µM) | 2.3 (≈ 6.08 µM) | 1.1 (≈ 2.91 µM) | 3.5 (≈ 9.25 µM) | 0.2 (≈ 0.529 µM) | 3 (≈ 7.93 µM) | 0.0012 (≈ 0.00317 µM) | selectivity ratio (in vitro [15]): 333; selectivity ratio [16]: 111; selectivity ratio [17]: 256; selectivity ratio [18]: 122; selectivity ratio (in vitro [23]): 166; selectivity ratio [24]: 1920; selectivity ratio [26]: 588; selectivity ratio (in vitro [29]): 2500; selectivity ratio [30]: 833; selectivity ratio [32]: 2250; selectivity ratio [33]: 989; selectivity ratio [35]: 4420 |
